This is an account of results in PubChem BioAssay AID330 (DTP/NCI, 2004).

This test relates to P388 leukemia ip, CD2F1 mice, survival T/C. Description: NCI In Vivo Anticancer Drug Screen. Data for tumor model P388 Leukemia (intraperitoneal) in CD2F1 (CDF1) mice. The following applies: endpoint: median survival time, higher = longer survival. A digest of the protocol: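 Mice carrying the transplanted tumor received test compound or vehicle. Survival was recorded in each group, and the value is the treated-group measurement divided by that of the vehicle-treated control group.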

[1] abbreviates: dose: 6.25 mg/kg/injection, schedule: Q01DX009 (ip), vehicle: saline.
The mark [2] stands for this setting: dose: 100.0 mg/kg/injection, schedule: Q04DX002 (ip), vehicle: saline with Tween-80.
The mark [3] stands for this setting: dose: 200.0 mg/kg/injection, schedule: Q04DX002 (ip), vehicle: saline with Tween-80.
Setting [4] is: dose: 60.0 mg/kg/injection, schedule: Q01DX005 (ip), vehicle: saline with Tween-80.
Setting [5] is: dose: 120.0 mg/kg/injection, schedule: Q01DX005 (ip), vehicle: saline with Tween-80.
Where [6] appears, read: dose: 240.0 mg/kg/injection, schedule: Q01DX005 (ip), vehicle: saline with Tween-80.
[7] abbreviates: dose: 50.0 mg/kg/injection, schedule: Q01DX009 (ip), vehicle: saline with Tween-80.
Setting [8] is: dose: 100.0 mg/kg/injection, schedule: Q01DX009 (ip), vehicle: saline with Tween-80.
[9] abbreviates: dose: 200.0 mg/kg/injection, schedule: Q01DX009 (ip), vehicle: saline with Tween-80.
The mark [10] stands for this setting: dose: 50.0 mg/kg/injection, schedule: Q01DX005 (ip), vehicle: Klucel (hydroxypropylcellulose) (HPC).
The mark [11] stands for this setting: dose: 100.0 mg/kg/injection, schedule: Q01DX005 (ip), vehicle: Klucel (hydroxypropylcellulose) (HPC).
Setting [12] is: dose: 25.0 mg/kg/injection, schedule: Q01DX005 (ip), vehicle: Klucel (hydroxypropylcellulose) (HPC).
Where [13] appears, read: dose: 200.0 mg/kg/injection, schedule: Q01DX005 (ip), vehicle: Klucel (hydroxypropylcellulose) (HPC).
Setting [14] is: dose: 400.0 mg/kg/injection, schedule: Q04DX002 (ip), vehicle: saline with Tween-80.
The mark [15] stands for this setting: dose: 50.0 mg/kg/injection, schedule: Q01DX005 (ip), vehicle: saline with Tween-80.
[16] abbreviates: dose: 100.0 mg/kg/injection, schedule: Q01DX005 (ip), vehicle: saline with Tween-80.
Where [17] appears, read: dose: 12.5 mg/kg/injection, schedule: Q01DX005 (ip), vehicle: Klucel (hydroxypropylcellulose) (HPC).
Setting [18] is: dose: 200.0 mg/kg/injection, schedule: Q01DX005 (ip), vehicle: saline with Tween-80.

“And” between values parts separate entries of the source, which are not always exact repeats. Identical values can stand only once. Toxic doses and inconclusive results are not listed.

Take `O=C1CS/C(=N\C(=O)Nc2ccc(Cl)c(Cl)c2)N1`: the T/C was 91 % of control under setting [1]; 100 % of control (dose: 12.5 mg/kg/injection, schedule: Q01DX009 (ip), vehicle: saline); 94 % of control (dose: 25.0 mg/kg/injection, schedule: Q01DX009 (ip), vehicle: saline); 88 % of control (dose: 50.0 mg/kg/injection, schedule: Q01DX009 (ip), vehicle: saline + alcohol); 91 % of control (dose: 100.0 mg/kg/injection, schedule: Q01DX009 (ip), vehicle: saline + alcohol); 88 % of control (dose: 200.0 mg/kg/injection, schedule: Q01DX009 (ip), vehicle: saline + alcohol).

With `COc1cc(N(C)C)c(OC)cc1/C=C\c1ccnc2ccccc12`, the T/C (dose: 100.0 mg/kg/injection, schedule: Q04DX003 (ip), vehicle: saline with Tween-80) is 111 % of control.

On to `COc1ccc2c([O-])c3[n+](c(OC)c2c1OC)CCc1cc2c(cc1-3)OCO2`, for which the T/C runs as follows: (dose: 50.0 mg/kg/injection, schedule: Q04DX002 (ip), vehicle: saline with Tween-80) 94 % of control; under setting [2], 104 % of control; under setting [3], 103 % of control.

Regarding `CC1OC(Oc2c(-c3ccc(O)c(O)c3O)oc3cc(O)ccc3c2=O)C(O)C(O)C1O` (stereo not given), the T/C was 102 % of control under setting [4], 98 % of control under setting [5] and 99 % of control under setting [6].

With `CC1(C)CN(C(=S)N2CC(C)(C)SC2=O)C(=O)S1`, the T/C reads like this: under setting [4], 108 % of control; under setting [5], 98 % of control; under setting [6], 104 % of control.

Take `CCCCCCCCCCCC#CC(=O)O`: the T/C is 110 % of control under setting [7], 102 % of control under setting [8] and 105 % of control under setting [9].

For `CCOC(=O)C1=C(Nc2cccc3c(NC4=C(C(=O)OCC)C(=O)CO4)cccc23)OCC1=O`, the T/C was 109 % of control under setting [4], 99 % of control under setting [5] and 98 % of control under setting [6].

On to `ICC1COC(CI)CO1` (stereo not given), for which the T/C runs as follows: under setting [8], 100 % of control; under setting [9], 104 % of control; (dose: 400.0 mg/kg/injection, schedule: Q01DX009 (ip), vehicle: saline with Tween-80) 90 % of control.

For `CC1=C(C)C(N2CCOCC2)CS(=O)(=O)O1` (stereo not given), the T/C by setting is: under setting [10], 109 % of control; under setting [11], 101 % of control.

On to `CC(=O)c1ccc2c3c(cccc13)C(=O)OC2=O`, for which the T/C under setting [12] is 100 % of control; the T/C under setting [10] is 100 % of control and 101 % of control; the T/C under setting [11] is 102 % of control and 97 % of control; the T/C under setting [13] was 104 % of control.

Consider `O=C(O)C1SCSC1C(=O)O` (stereo not given), for which the T/C reads like this: (dose: 25.0 mg/kg/injection, schedule: Q01DX009 (ip), vehicle: other) 94 % of control; (dose: 50.0 mg/kg/injection, schedule: Q01DX009 (ip), vehicle: other) 100 % of control; (dose: 100.0 mg/kg/injection, schedule: Q01DX009 (ip), vehicle: other) 90 % of control; (dose: 200.0 mg/kg/injection, schedule: Q01DX009 (ip), vehicle: other) 98 % of control.

On to `CN1c2ccccc2SC12C(=O)N(c1ccccc1)C(=O)N2c1ccccc1` (stereo not given), for which the T/C reads like this: under setting [7], 103 % of control; under setting [8], 100 % of control; under setting [9], 103 % of control.

With `CS(=O)CCCC#N` (stereo not given), the T/C is, setting by setting: (dose: 18.75 mg/kg/injection, schedule: Q01DX009 (ip), vehicle: saline with Tween-80) 115 % of control; (dose: 37.5 mg/kg/injection, schedule: Q01DX009 (ip), vehicle: saline with Tween-80) 100 % of control; (dose: 75.0 mg/kg/injection, schedule: Q01DX009 (ip), vehicle: saline with Tween-80) 110 % of control; (dose: 150.0 mg/kg/injection, schedule: Q01DX009 (ip), vehicle: saline with Tween-80) 100 % of control; (dose: 300.0 mg/kg/injection, schedule: Q01DX009 (ip), vehicle: saline with Tween-80) 105 % of control.

Turning to `CCCCC(=O)Oc1cc(=O)n(C)c2cc(C)n(C)c(=O)c12`, the T/C (dose: 60.0 mg/kg/injection, schedule: Q01DX005 (ip), vehicle: Klucel (hydroxypropylcellulose) (HPC)) is 98 % of control; the T/C (dose: 120.0 mg/kg/injection, schedule: Q01DX005 (ip), vehicle: Klucel (hydroxypropylcellulose) (HPC)) was 103 % of control; the T/C (dose: 240.0 mg/kg/injection, schedule: Q01DX005 (ip), vehicle: Klucel (hydroxypropylcellulose) (HPC)) is 106 % of control.

For the compound `CN(C)CCCNCCCCNCCCN(C)C`, the T/C under setting [7] was 105 % of control, the T/C under setting [8] was 110 % of control and the T/C under setting [9] is 110 % of control.

Consider `CCSC(=S)N(CC)c1nc2ccccc2o1`, for which the T/C under setting [2] was 105 % of control, the T/C under setting [3] was 113 % of control and the T/C under setting [14] was 122 % of control.

Consider `ClCCN1c2ccc3ccccc3c2Sc2ccc3ccccc3c21`, for which the T/C was 95 % of control under setting [15] and 89 % of control under setting [16].

With `CCOC(=O)C1C(=O)C(=O)OC1CC(C)C` (stereo not given), the T/C under setting [17] is 109 % of control; the T/C under setting [12] was 103 % of control; the T/C under setting [10] is 107 % of control and 113 % of control.

`O=[N+]([O-])CC(OCCCCCCO)C(Cl)(Cl)Cl` (stereo not given): the T/C by setting is: under setting [7], 100 % of control; under setting [8], 95 % of control.

Take `O=C1C=C(Nc2ncccn2)c2ccccc2C1=O`: the T/C is, setting by setting: (dose: 6.25 mg/kg/injection, schedule: Q01DX005 (ip), vehicle: Klucel + Tween-80) 115 % of control; (dose: 12.5 mg/kg/injection, schedule: Q01DX005 (ip), vehicle: Klucel + Tween-80) 98 % of control; (dose: 25.0 mg/kg/injection, schedule: Q01DX005 (ip), vehicle: Klucel + Tween-80) 104 % of control.

Take `O=C(OCc1ccccc1)C(Cc1c[nH]c2ccccc12)n1cnc2ccccc2c1=O` (stereo not given): the T/C is 97 % of control under setting [17], 97 % of control under setting [12] and 96 % of control under setting [10].

For `N#Cc1c(-c2ccccc2)c(-c2ccccc2)nn(CCC(=O)O)c1=O`, the T/C was 101 % of control (dose: 25.0 mg/kg/injection, schedule: Q04DX002 (ip), vehicle: distilled water + Tween-80); 102 % of control (dose: 50.0 mg/kg/injection, schedule: Q04DX002 (ip), vehicle: distilled water + Tween-80); 108 % of control (dose: 100.0 mg/kg/injection, schedule: Q04DX002 (ip), vehicle: distilled water + Tween-80).

`CC1(C)Nc2cccc3cccc(c23)N1`: the T/C by setting is: under setting [10], 108 % of control; under setting [11], 86 % of control.

`COC(=O)c1c(-c2ccc3c(c2)OCO3)c(C=O)n(C)c1C`: the T/C reads like this: under setting [2], 90 % of control; under setting [3], 87 % of control; under setting [14], 89 % of control.

Turning to `CCB1OC2OC3C4OB(CC)OC4OC3C2O1` (stereo not given), the T/C by setting is: under setting [15], 103 % of control; under setting [16], 103 % of control; under setting [18], 103 % of control.

In the case of `CCCCCCn1c(=O)cc2n(c1=O)CCC2`, the T/C by setting is: under setting [4], 103 % of control; under setting [5], 101 % of control.

On to `C[n+]1ccn2cc(S(=O)(=O)[O-])ccc21`, for which the T/C runs as follows: (dose: 3.12 mg/kg/injection, schedule: Q01DX009 (ip), vehicle: saline) 92 % of control; under setting [1], 95 % of control.

As to `C1=CC(Cc2ccccc2)NC1` (stereo not given), the T/C is 100 % of control (dose: 100.0 mg/kg/injection, schedule: Q01DX001 (ip), vehicle: distilled water + alcohol) and 100 % of control (dose: 200.0 mg/kg/injection, schedule: Q01DX001 (ip), vehicle: distilled water + alcohol).

As for `O=C(OCc1ccccc1)c1ccc(=O)oc1`, the T/C is 114 % of control (dose: 100.0 mg/kg/injection, schedule: Q04DX003 (ip), vehicle: Klucel (hydroxypropylcellulose) (HPC)) and 110 % of control (dose: 200.0 mg/kg/injection, schedule: Q04DX003 (ip), vehicle: Klucel (hydroxypropylcellulose) (HPC)).

`Cc1cc(NC(=O)c2ccc(NC(=O)c3ccc(N)cc3)cc2)ccc1N=Nc1ccc2c(O)c(N=Nc3ccc4cc(S(=O)(=O)O)ccc4c3)c(S(=O)(=O)O)cc2c1`: the T/C reads like this: under setting [15], 94 % of control; under setting [16], 103 % of control; under setting [18], 94 % of control.

Turning to `Nc1[nH]c(=S)nc2nc3c4ccccc4c4ccccc4c3nc12`, the T/C was 91 % of control under setting [10], 90 % of control under setting [11] and 91 % of control under setting [13].
